We go through three compounds from patent publication US20250352615A1, “COMPOSITIONS AND METHODS FOR THE MODULATION OF PIEZO1 AND TRPV4” (Duke University, priority 2021, published 2025).

The target in assay [1] is T1, TRPV4 (Homo sapiens, UniProt Q9HBA0).
T1 construct: Fresh, human pancreatic tissue was digested with collagenase as described above with modifications; endogenous in cells; host or cells: primary human pancreatic stellate cells from fresh human pancreatic tissue
The experiment in a line: Calcium imaging of TRPV4-mediated [Ca2+]i in human PSCs. Type of assay: cell-based. The protocol:
Mouse and human PSCs were isolated using collagenase digestion. Modified Krebs Henseleit Buffer (KHB) solution (100 mL) was prepared as previously described by Romac et al., Nat. Commun. 9(1):1715 (2018). Pancreatic tissue was digested with 2 mg of collagenase NB 8 (SERVA, catalog 17456) dissolved in 10 mL of modified KHB solution containing 1 mg soybean trypsin inhibitor (SBTI 1-S; Millipore Sigma, catalog T9003) and 20 mg BSA (Thermo Fisher Scientific; BP1600-100). Digestion solution (5 mL) was used to inflate the pancreas. Pancreas with 5 mL of digestion solution was incubated in a shaking water bath for 10 minutes at 37° C. The solution was then discarded. The pancreas tissue was cut into small pieces and digested with fresh 5 mL digestion buffer. Tissue was incubated in a shaking water bath for 40 minutes at 37° C. The cells were then separated from tissue by pipetting up-down with a 10 mL pipette and passed sequentially through a 70 μm and a 40 μm cell strainer. The filtrate was centrifuged at 150×g for 3 minutes at room temperature. The cells were washed with 10 mL Leibovitz's media (Thermo Fisher Scientific, catalog 11415-064), passed through a 20 μm filter, and centrifuged at 80×g for 3 minutes at room temperature. […] The cell viability following Yoda1 treatment was analyzed using the Live/Dead cell imaging kit (Thermo Fisher Scientific, catalog R37601). […]

In assay [2] the target is T2, TRPV4 (Mus musculus, UniProt Q9EPK8).
T2 construct: endogenous in cells; host or cells: freshly isolated mouse pancreatic acini (C57BL/6J WT)
T2 sequence (Q9EPK8 whole entry): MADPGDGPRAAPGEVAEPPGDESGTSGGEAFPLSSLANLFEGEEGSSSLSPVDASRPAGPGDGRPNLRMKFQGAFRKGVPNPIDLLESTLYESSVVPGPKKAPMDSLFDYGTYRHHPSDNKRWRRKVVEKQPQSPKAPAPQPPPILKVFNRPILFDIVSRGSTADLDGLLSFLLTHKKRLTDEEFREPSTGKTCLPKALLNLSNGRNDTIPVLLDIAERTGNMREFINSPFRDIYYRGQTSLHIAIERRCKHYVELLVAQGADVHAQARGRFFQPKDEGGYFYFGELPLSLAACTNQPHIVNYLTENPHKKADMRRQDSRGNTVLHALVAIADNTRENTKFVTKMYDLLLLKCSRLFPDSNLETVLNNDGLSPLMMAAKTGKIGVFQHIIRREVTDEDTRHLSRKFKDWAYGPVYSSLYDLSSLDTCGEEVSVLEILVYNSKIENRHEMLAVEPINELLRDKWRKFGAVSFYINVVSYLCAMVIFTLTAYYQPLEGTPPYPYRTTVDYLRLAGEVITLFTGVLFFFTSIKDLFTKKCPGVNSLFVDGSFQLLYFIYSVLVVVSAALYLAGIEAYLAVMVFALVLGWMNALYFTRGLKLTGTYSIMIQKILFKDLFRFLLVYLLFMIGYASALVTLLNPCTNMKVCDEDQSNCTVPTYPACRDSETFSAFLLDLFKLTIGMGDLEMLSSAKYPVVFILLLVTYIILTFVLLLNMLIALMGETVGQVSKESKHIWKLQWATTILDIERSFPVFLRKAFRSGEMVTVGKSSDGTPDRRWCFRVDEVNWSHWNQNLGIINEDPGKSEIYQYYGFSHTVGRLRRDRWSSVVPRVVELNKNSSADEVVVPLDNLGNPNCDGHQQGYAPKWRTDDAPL
The assay can be described thus: Calcium imaging of TRPV4-mediated [Ca2+]i in pancreatic acini (agonists, shear stress, Yoda1 sustained phase). Type of assay: cell-based. The protocol:
(§1) Mouse pancreatic acini were isolated using a standard collagenase digestion protocol. Isolated acini were plated on a thin-layered, Matrigel-coated, glass-bottom, culture plate (MatTek, P35G-0-14-C). Freshly isolated acini were used in each experiment.
Parallel-plate fluid flow chambers (μ-Slide I 0.4 Luer, and μ-Slide I 0.2 Luer from Ibidi GmbH) were used to measure the shear stress-induced changes in intracellular calcium, mitochondrial depolarization, and trypsin activation. The constant flow rate with shear stress (T) was determined as follows: τ=η×[…] φ for μ-Slide I 0.4 Luer and τ=η×330.4 φ for μ-Slide I 0.2 Luer, where η=viscosity of the medium and φ=flow rate (according to the manufacturer's instructions, Ibidi).
(§2) Calcium imaging in pancreatic acini was performed as previously described. The chemicals used in calcium imaging experiments included the following: Yoda1 (Tocris; 5586), GsMTx4 (Abcam; ab141871), 5′,6′-EET (Santa Cruz Biotechnology; sc-221066), AA (Millipore Sigma; A3611), HC067047 (Tocris; 4100), GSK1016790A (Millipore Sigma; G0798), RN1734 (Tocris; 3746), AACOCF3 (Tocris; 1462), YM26734 (Tocris; 2522), GF109203X (Tocris; 0741), and CCK8 (Sigma-Aldrich).

Assay [3] deals with T2, TRPV4. The experiment in a line: Calcium imaging of TRPV4-mediated [Ca2+]i in mouse PSCs. Type of assay: cell-based. The protocol: Mouse and human PSCs were isolated using collagenase digestion. Modified Krebs Henseleit Buffer (KHB) solution (100 mL) was prepared as previously described by Romac et al., Nat. Commun. 9(1):1715 (2018). Pancreatic tissue was digested with 2 mg of collagenase NB 8 (SERVA, catalog 17456) dissolved in 10 mL of modified KHB solution containing 1 mg soybean trypsin inhibitor (SBTI 1-S; Millipore Sigma, catalog T9003) and 20 mg BSA (Thermo Fisher Scientific; BP1600-100). Digestion solution (5 mL) was used to inflate the pancreas. Pancreas with 5 mL of digestion solution was incubated in a shaking water bath for 10 minutes at 37° C. The solution was then discarded. The pancreas tissue was cut into small pieces and digested with fresh 5 mL digestion buffer. Tissue was incubated in a shaking water bath for 40 minutes at 37° C. The cells were then separated from tissue by pipetting up-down with a 10 mL pipette and passed sequentially through a 70 μm and a 40 μm cell strainer. The filtrate was centrifuged at 150×g for 3 minutes at room temperature. The cells were washed with 10 mL Leibovitz's media (Thermo Fisher Scientific, catalog 11415-064), passed through a 20 μm filter, and centrifuged at 80×g for 3 minutes at room temperature. The supernate was removed, and isolated stellate cells were plated on a thin-layered Matrigel-coated glass bottom culture plate (MatTek, P35G-0-14-C). Before plating the cells, Matrigel solution (Corning, catalog 354234) at a ratio of 1.5:100 DMEM/F12 (Thermo Fisher Scientific, catalog 11330-032) was poured onto the culture plate and incubated for 2 hr at 37° C. to form a thin layer of Matrigel coating. Matrigel mixture was removed, and the plate was washed with PBS before cells were plated. Cell culture media, DMEM/F12 with 5% FBS was used for mouse stellate cells. Fresh, human pancreatic tissue was digested with collagenase as described above with modifications. […] The cell viability following Yoda1 treatment was analyzed using the Live/Dead cell imaging kit (Thermo Fisher Scientific, catalog R37601). […]

Another assay deals with KPCY cells. The experiment in a line: Orthotopic KPCY cell PDAC model with TRPV4 blocker via osmotic minipump. Type of assay: in vivo, mouse. The note with it: GSK2193874 20 mg/mL, 100 μL in subcutaneous osmotic minipump, 20 days; preliminary. The protocol: In this experimental model, KPCY cells (100,000 cells in 25 μL phosphate buffer saline pH 7, containing 1% Matrigel) are injected into the tail region of the pancreas with and without a TRPV4 blocker to investigate if a TRPV4 inhibitor can inhibit PDAC growth and stop cancer cell metastasis. For accurate and continuous dosing, the TRPV4 blocker is placed in an infusion osmotic minipump (ALZET) implanted subcutaneously. Mice are observed for 20 days. On day 20, liver and pancreas tissue are processed for microscopic imaging and quantification of mRNA levels. Serum samples are collected for analysis and quantification of pro-metastatic factors.
Tumor growth and serum SAA were measured 20 days after transplantation of KPCY cells into the pancreas, as described in FIG. 33. Mice were treated with GSK2193874 (20 mg/mL) dissolved in 6% cavitron saline buffer and 100 μL drug solution was loaded in an osmotic minipump implanted subcutaneously for 20 days.
KPCY cells resuspended in PBS+1% matrigel after trypsinization. Either 10,000 or 100,000 cells in 20 μl PBS were injected into the pancreatic tail. […]
Orthotopic injection of KPCY cells with implantation of micro-osmotic pump (Alzet, 1004) filled with either vehicle (6% cavitron W7 HP7 in water—Ashland) or GSK2193874 at 20 mg/mL. Mice were euthanized 20 days later, and organs were measured and harvested. […]

Another assay has as its system pancreatic acini. The experiment in a line: CCK-induced [Ca2+]i in pancreatic acini. Type of assay: cell-based, mouse. Conditions: HC067 1 μM; CCK 1 nM. The protocol:
as §1, §2

T1 sequence (Q9HBA0 whole entry): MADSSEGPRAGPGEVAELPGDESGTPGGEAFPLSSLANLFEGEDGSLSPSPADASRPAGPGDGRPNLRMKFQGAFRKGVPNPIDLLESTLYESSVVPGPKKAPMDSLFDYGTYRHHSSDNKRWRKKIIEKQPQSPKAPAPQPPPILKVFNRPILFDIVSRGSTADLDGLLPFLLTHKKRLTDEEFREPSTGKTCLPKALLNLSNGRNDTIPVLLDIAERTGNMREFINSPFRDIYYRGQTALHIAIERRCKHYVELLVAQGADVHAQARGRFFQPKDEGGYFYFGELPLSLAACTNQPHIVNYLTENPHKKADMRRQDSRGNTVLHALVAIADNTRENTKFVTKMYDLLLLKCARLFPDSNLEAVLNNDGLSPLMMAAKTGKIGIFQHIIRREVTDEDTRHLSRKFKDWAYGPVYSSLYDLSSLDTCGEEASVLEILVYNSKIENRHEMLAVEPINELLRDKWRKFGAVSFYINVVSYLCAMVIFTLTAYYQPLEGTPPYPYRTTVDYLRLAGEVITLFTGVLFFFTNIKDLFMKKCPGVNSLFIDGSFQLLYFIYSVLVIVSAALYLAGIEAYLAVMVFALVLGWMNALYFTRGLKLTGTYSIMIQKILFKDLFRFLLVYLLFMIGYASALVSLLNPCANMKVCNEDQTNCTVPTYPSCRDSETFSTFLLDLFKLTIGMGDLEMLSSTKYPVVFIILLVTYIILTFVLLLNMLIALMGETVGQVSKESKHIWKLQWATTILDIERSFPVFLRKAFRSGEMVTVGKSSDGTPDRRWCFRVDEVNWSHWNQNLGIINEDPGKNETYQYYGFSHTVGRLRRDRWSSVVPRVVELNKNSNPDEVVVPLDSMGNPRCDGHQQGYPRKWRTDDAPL

As for `CC(C)C[C@H](NC(=O)c1cc2ccccc2s1)C(=O)N1CCN(C(=O)[C@H](CO)NS(=O)(=O)c2ccc(Cl)cc2Cl)CC1` [GSK101], the “agonist effect on [Ca2+]i” value at TRPV4 [1] (GSK101 100 nM, quiescent human PSCs) is “produced a sustained elevation in [Ca^2+]i”; at TRPV4 [2] (GSK101 50 nM, arachidonic acid 20 μM, 5′,6′-EET 5 μM), “induced a significant increase in [Ca^2+]i”; at TRPV4 [3] (GSK101 100 nM, quiescent mouse PSCs) it was “produced a sustained elevation in [Ca^2+]i”.
`O=C(NC1(c2ccccc2)CC1)c1c(CN2CCC(N3CCCCC3)CC2)c(-c2cccc(C(F)(F)F)c2)nc2cc(Br)ccc12` [GSK2193874]: in the assay on KPCY cells, the “pancreatic cancer (PDAC) growth” value is given as “inhibited pancreatic cancer growth” and the “serum SAA levels” value was “reduced serum SAA levels”.
Consider `Cc1c(C(=O)Nc2cccc(C(F)(F)F)c2)cc(-c2ccccc2)n1CCCN1CCOCC1` [HC067], for which the “effect on GSK1016790A-induced sustained [Ca2+]i elevation” value on TRPV4 [1] (HC067 1 μM, human PSCs) is recorded as “blocked”; at TRPV4 [3] (HC067 1 μM, mouse PSCs), “blocked”. In addition, the “effect on CCK-stimulated peak or sustained [Ca2+]i” value in the assay on pancreatic acini is “did not affect the CCK-stimulated (1 nM) peak or sustained [Ca^2+]i changes”. Further, on TRPV4 [2] (HC067 100 nM), the “effect on AA- and 5′,6′-EET-induced [Ca2+]i increases” value was “inhibited”. Also, the “effect on GSK101 (50 nM)-induced [Ca2+]i increase” value at TRPV4 [2] (HC067 100 nM, RN1734 30 μM) is “inhibited”. The “effect on shear stress-induced sustained [Ca2+]i elevation” value on TRPV4 [2] (HC067 1 μM, 12 dyne/cm^2 for 30 seconds) was “blocked the sustained [Ca^2+]i elevation, leaving only transient alterations in [Ca^2+]i”. Further, the “effect on Yoda1-stimulated sustained [Ca2+]i increase” value on TRPV4 [2] (HC067 1 μM, Yoda1 25 μM) was “completely blocked the Yoda1-stimulated (25 μM) sustained increase in [Ca^2+]i”.
